Laboratory results taken from PubChem BioAssay (NCI).
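Compound exposure: 48 hours, 5 concentrations, 96-well plates. TGI marks complete inhibition of growth.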

What was measured:
Assay in all cases: NCI anticancer screen, dose series, 48 h
[1] = tested on: CAKI-1 renal
[2] = tested on: A549 NSCLC
[3] = tested on: NCI-H522 lung
[4] = tested on: SNB-19 CNS
[5] = tested on: MOLT-4 leukemia
[6] = tested on: IGROV1 ovarian
[7] = tested on: HOP-62 NSCLC
[8] = tested on: KM20L2 colon
[9] = tested on: OVCAR-5 ovarian
[10] = tested on: 786-0 renal
[11] = tested on: DMS 273 small cell lung
[12] = tested on: ACHN renal
[13] = tested on: DMS 114 small cell lung
[14] = tested on: HL-60(TB) leukemia
[15] = tested on: SN12C renal
[16] = tested on: SW-620 colon
[17] = tested on: EKVX NSCLC
[18] = tested on: SK-OV-3 ovarian
[19] = tested on: DLD-1 colon
[20] = tested on: M14 melanoma
[21] = tested on: TK-10 renal
[22] = tested on: SK-MEL-28 melanoma
[23] = tested on: MALME-3M melanoma
[24] = tested on: RXF 393 renal
[25] = tested on: UACC-62 melanoma
[26] = tested on: HCC-2998 colon
[27] = tested on: NCI-H23 lung
[28] = tested on: SK-MEL-2 melanoma
[29] = tested on: UO-31 renal
[30] = tested on: HOP-92 NSCLC
[31] = tested on: K-562 leukemia
[32] = tested on: COLO 205 colon
[33] = tested on: SF-268 CNS
[34] = tested on: SF-295 CNS
[35] = tested on: RPMI-8226 leukemia
[36] = tested on: LOX IMVI melanoma
[37] = tested on: CCRF-CEM leukemia
[38] = tested on: UACC-257 melanoma
[39] = tested on: SK-MEL-5 melanoma
[40] = tested on: OVCAR-4 ovarian
[41] = tested on: SNB-78 CNS
[42] = tested on: OVCAR-8 ovarian
[43] = tested on: HCT-15 colon
[44] = tested on: M19-MEL melanoma
[45] = tested on: XF 498 CNS
[46] = tested on: LXFL 529 NSCLC
[47] = tested on: SNB-75 CNS
[48] = tested on: OVCAR-3 ovarian
[49] = tested on: KM12 colon
[50] = tested on: NCI-H460 lung
[51] = tested on: SF-539 CNS
[52] = tested on: HOP-18 NSCLC
[53] = tested on: A498 renal
[54] = tested on: HCT-116 colon
[55] = tested on: SR leukemia
[56] = tested on: U251 CNS
[57] = tested on: HT29 colon
[58] = tested on: NCI-H226 lung

With `COc1cc2c(cc1OC)NC(=O)NC(Cc1ccc3c(c1)OCO3)CC2` (centres undefined) the TGI [1] was > 100 µM, the TGI [2] was > 100 µM and the TGI [3] was 76.2 µM. For the same compound, the TGI [4] was > 100 µM, the TGI [5] was > 100 µM and the TGI [6] was > 100 µM. The TGI [7] was > 100 µM, the TGI [8] was > 100 µM and the TGI [9] was > 100 µM. The TGI [10] was > 100 µM, the TGI [11] was > 100 µM and the TGI [12] was > 100 µM. The TGI [13] was > 100 µM, the TGI [14] was > 100 µM and the TGI [15] was > 100 µM. For the same compound, the TGI [16] was > 100 µM, the TGI [17] was > 100 µM and the TGI [18] was > 100 µM. The TGI [19] was > 100 µM, the TGI [20] was > 100 µM and the TGI [21] was > 100 µM. The TGI [22] was > 100 µM, the TGI [23] was > 100 µM and the TGI [24] was > 100 µM. The TGI [25] was > 100 µM, the TGI [26] was > 100 µM and the TGI [27] was > 100 µM. For the same compound, the TGI [28] was > 100 µM, the TGI [29] was > 100 µM and the TGI [30] was > 100 µM. The TGI [31] was > 100 µM, the TGI [32] was > 100 µM and the TGI [33] was > 100 µM. The TGI [34] was > 100 µM, the TGI [35] was > 100 µM and the TGI [36] was > 100 µM. For the same compound, the TGI [37] was > 100 µM, the TGI [38] was > 100 µM and the TGI [39] was > 100 µM. The TGI [40] was > 100 µM, the TGI [41] was > 100 µM and the TGI [42] was > 100 µM. The TGI [43] was > 100 µM, the TGI [44] was > 100 µM and the TGI [45] was > 100 µM. The TGI [46] was > 100 µM, the TGI [47] was > 100 µM and the TGI [48] was > 100 µM. For the same compound, the TGI [49] was > 100 µM and the TGI [50] was > 100 µM.

With `CSc1nc(NC2OC(COC(C)=O)C(OC(C)=O)C(OC(C)=O)C2OC(C)=O)c(-c2csc(N)n2)c(=O)n1C` (centres undefined) the TGI [51] was > 100 µM, the TGI [1] was > 100 µM and the TGI [2] was > 100 µM. The TGI [3] was > 100 µM, the TGI [4] was > 100 µM and the TGI [5] was > 100 µM. The TGI [6] was > 100 µM, the TGI [7] was 66.9 µM and the TGI [52] was > 100 µM. For the same compound, the TGI [8] was > 100 µM, the TGI [9] was > 100 µM and the TGI [53] was > 100 µM. For the same compound, the TGI [10] was 39.4 µM, the TGI [12] was > 100 µM and the TGI [13] was > 100 µM. For the same compound, the TGI [54] was > 100 µM, the TGI [14] was > 100 µM and the TGI [15] was > 100 µM. For the same compound, the TGI [16] was > 100 µM, the TGI [18] was > 100 µM and the TGI [55] was > 100 µM. The TGI [19] was > 100 µM, the TGI [20] was > 100 µM and the TGI [21] was > 100 µM. The TGI [22] was > 100 µM, the TGI [23] was > 100 µM and the TGI [25] was 89.4 µM. For the same compound, the TGI [27] was > 100 µM, the TGI [28] was > 100 µM and the TGI [29] was > 100 µM. The TGI [30] was 63.1 µM, the TGI [31] was > 100 µM and the TGI [32] was > 100 µM. The TGI [33] was > 100 µM, the TGI [34] was > 100 µM and the TGI [35] was > 100 µM. The TGI [56] was > 100 µM, the TGI [36] was > 100 µM and the TGI [37] was > 100 µM. For the same compound, the TGI [38] was > 100 µM, the TGI [57] was > 100 µM and the TGI [58] was 81.7 µM. The TGI [39] was > 100 µM, the TGI [40] was 55.1 µM and the TGI [41] was 76.8 µM. For the same compound, the TGI [42] was 86.9 µM, the TGI [43] was > 100 µM and the TGI [44] was > 100 µM. For the same compound, the TGI [46] was > 100 µM, the TGI [47] was 47.8 µM and the TGI [48] was > 100 µM. For the same compound, the TGI [49] was > 100 µM and the TGI [50] was > 100 µM.

In the case of `CC1=C(C(=O)Nc2ccc([N+](=O)[O-])cc2)C(c2ccc3c(c2)OCO3)C(C(=O)Nc2ccc([N+](=O)[O-])cc2)=C(C)N1`, the TGI [51] is reported as > 100 µM, the TGI [1] is reported as > 100 µM and the TGI [2] is reported as > 100 µM. For the same compound, the TGI [3] was > 100 µM, the TGI [4] was > 100 µM and the TGI [6] was > 100 µM. For the same compound, the TGI [7] was > 100 µM, the TGI [52] was > 100 µM and the TGI [8] was > 100 µM. The TGI [9] was > 100 µM, the TGI [53] was 69.1 µM and the TGI [10] was > 100 µM. For the same compound, the TGI [11] was 97.4 µM, the TGI [12] was > 100 µM and the TGI [13] was > 100 µM. For the same compound, the TGI [54] was > 100 µM, the TGI [15] was > 100 µM and the TGI [16] was > 100 µM. The TGI [17] was > 100 µM, the TGI [18] was > 100 µM and the TGI [19] was > 100 µM. For the same compound, the TGI [20] was 50.4 µM, the TGI [22] was > 100 µM and the TGI [23] was > 100 µM. The TGI [24] was > 100 µM, the TGI [25] was 59.4 µM and the TGI [26] was 57.4 µM. The TGI [27] was 57.9 µM, the TGI [28] was 35 µM and the TGI [29] was > 100 µM. For the same compound, the TGI [30] was 38.9 µM, the TGI [31] was > 100 µM and the TGI [32] was 18.4 µM. For the same compound, the TGI [33] was > 100 µM, the TGI [34] was > 100 µM and the TGI [35] was 68.5 µM. The TGI [56] was > 100 µM, the TGI [38] was 50.7 µM and the TGI [57] was > 100 µM. For the same compound, the TGI [58] was 55.8 µM, the TGI [40] was > 100 µM and the TGI [41] was > 100 µM. The TGI [42] was 27.9 µM, the TGI [43] was > 100 µM and the TGI [44] was 61.6 µM. The TGI [46] was > 100 µM, the TGI [47] was 45.7 µM and the TGI [48] was > 100 µM. For the same compound, the TGI [49] was 24.9 µM and the TGI [50] was > 100 µM.

For `O=[N+]([O-])c1ccc(/C=C/c2csnn2)cc1`, the TGI [51] was > 100 µM, the TGI [1] was > 100 µM and the TGI [2] was > 100 µM. The TGI [3] was > 100 µM, the TGI [4] was > 100 µM and the TGI [5] was > 100 µM. For the same compound, the TGI [6] was > 100 µM, the TGI [7] was > 100 µM and the TGI [52] was > 100 µM. For the same compound, the TGI [9] was > 100 µM, the TGI [10] was > 100 µM and the TGI [12] was > 100 µM. The TGI [13] was > 100 µM, the TGI [54] was > 100 µM and the TGI [14] was > 100 µM. The TGI [15] was > 100 µM, the TGI [16] was > 100 µM and the TGI [17] was > 100 µM. The TGI [18] was > 100 µM, the TGI [19] was > 100 µM and the TGI [20] was > 100 µM. For the same compound, the TGI [21] was > 100 µM, the TGI [22] was > 100 µM and the TGI [23] was > 100 µM. For the same compound, the TGI [24] was > 100 µM, the TGI [25] was > 100 µM and the TGI [26] was > 100 µM. For the same compound, the TGI [27] was > 100 µM, the TGI [28] was > 100 µM and the TGI [29] was > 100 µM. The TGI [30] was > 100 µM, the TGI [31] was > 100 µM and the TGI [33] was > 100 µM. The TGI [34] was > 100 µM, the TGI [35] was > 100 µM and the TGI [56] was > 100 µM. The TGI [36] was > 100 µM, the TGI [37] was > 100 µM and the TGI [38] was > 100 µM. The TGI [57] was > 100 µM, the TGI [58] was > 100 µM and the TGI [39] was > 100 µM. For the same compound, the TGI [40] was > 100 µM, the TGI [41] was > 100 µM and the TGI [42] was > 100 µM. The TGI [43] was > 100 µM, the TGI [44] was > 100 µM and the TGI [46] was > 100 µM. For the same compound, the TGI [48] was > 100 µM, the TGI [49] was > 100 µM and the TGI [50] was > 100 µM.
